Results taken from patent US6737383B1, “Herbicidal oxadiazolidines” (priority 1999, dated 2004).

How the values were obtained:
cocklebur = assay: Test B pre/postemergence cocklebur; assay type: in vivo, Xanthium strumarium
Summary of the method: (§1)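 Response is a visual 0-to-10 score relative to untreated plants, where 0 means no effect and 10 means complete control, taken twelve to sixteen days after application. Treatments went onto soil at planting and onto foliage of 1- to 4-leaf plants, using a surfactant-containing non-phytotoxic solvent.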

corn = assay: Test B pre/postemergence corn; assay type: in vivo, Zea mays
Summary of the method: as §1

rape = assay: Test B pre/postemergence rape; assay type: in vivo, Brassica napus
Summary of the method: as §1

bedstraw = assay: Test B pre/postemergence bedstraw; assay type: in vivo, Galium aparine
Summary of the method: as §1

giant foxtail = assay: Test B pre/postemergence giant foxtail; assay type: in vivo, Setaria faberii
Summary of the method: as §1

wheat = assay: Test B pre/postemergence wheat; assay type: in vivo, Triticum aestivum
Summary of the method: as §1

surinam grass = assay: Test B pre/postemergence surinam grass; assay type: in vivo, Brachiaria decumbens
Summary of the method: as §1

purple nutsedge = assay: Test B pre/postemergence purple nutsedge; assay type: in vivo, Cyperus rotundus
Summary of the method: as §1

crabgrass = assay: Test B pre/postemergence crabgrass; assay type: in vivo, Digitaria sanguinalis
Summary of the method: as §1

pigweed = assay: Test B pre/postemergence pigweed; assay type: in vivo, Amaranthus retroflexus
Summary of the method: as §1

blackgrass = assay: Test B pre/postemergence blackgrass; assay type: in vivo, Alopecurus myosuroides
Summary of the method: as §1

velvetleaf = assay: Test B pre/postemergence velvetleaf; assay type: in vivo, Abutilon theophrasti
Summary of the method: as §1

morningglory = assay: Test B pre/postemergence morningglory; assay type: in vivo, Ipomoea hederacea
Summary of the method: as §1

soybean = assay: Test B pre/postemergence soybean; assay type: in vivo, Glycine max
Summary of the method: as §1

wild oat = assay: Test B pre/postemergence wild oat; assay type: in vivo, Avena fatua
Summary of the method: as §1

sugar beet = assay: Test B pre/postemergence sugar beet; assay type: in vivo, Beta vulgaris
Summary of the method: as §1

[1] = Postemergence, Rate 62 g/ha, scale 0 to 10, 0 is no effect, 10 is complete control
[2] = Postemergence, Rate 125 g/ha, scale of 0 to 10 where 0 is no effect and 10 is complete control
[3] = Preemergence, Rate 62 g/ha, scale of 0 to 10 where 0 is no effect and 10 is complete control
[4] = Preemergence, Rate 125 g/ha, scale of 0 to 10 where 0 is no effect and 10 is complete control
[5] = Preemergence, Rate 250 g/ha, scale 0 (no effect) to 10 (complete control)
[6] = Preemergence, Rate 500 g/ha, scale of 0 to 10 where 0 is no effect and 10 is complete control
[7] = Rate 250 g/ha, Postemergence, scale 0 to 10, 0 is no effect, 10 is complete control
[8] = Rate 500 g/ha, Postemergence, scale 0 to 10, 0 is no effect, 10 is complete control

CC(C)N(C(=O)n1oc(=O)n(CC(F)F)c1=O)c1ccc(F)cc1 [Compound 710]
Plant response rating, Cocklebur (cocklebur; [1]): 0
Cocklebur plant response rating (cocklebur; [2]): 0
Cocklebur plant response rating (cocklebur; [3]): 0
Plant response rating, Cocklebur (cocklebur; [4]): 0
Cocklebur plant response rating (cocklebur; [5]): 0
Plant response rating, Cocklebur (cocklebur; [6]): 0
Cocklebur plant response rating (cocklebur; [7]): 0
Cocklebur plant response rating (cocklebur; [8]): 0
Plant response rating, Corn (corn; [1]): 0
Corn plant response rating (corn; [2]): 0
Corn plant response rating (corn; [3]): 0
Plant response rating, Corn (corn; [4]): 0
Corn plant response rating (corn; [5]): 0
Corn plant response rating (corn; [7]): 0
Corn plant response rating (corn; [8]): 2
Plant response rating, Rape (rape; [1]): 0
Rape plant response rating (rape; [2]): 0
Rape plant response rating (rape; [3]): 7
Plant response rating, Rape (rape; [4]): 8
Rape plant response rating (rape; [5]): 8
Rape plant response rating (rape; [7]): 3
Rape plant response rating (rape; [8]): 5
Bedstraw plant response rating (bedstraw; [2]): 1
Bedstraw plant response rating (bedstraw; [3]): 3
Plant response rating, Bedstraw (bedstraw; [4]): 3
Bedstraw plant response rating (bedstraw; [5]): 5
Plant response rating, Bedstraw (bedstraw; [6]): 7
Bedstraw plant response rating (bedstraw; [7]): 6
Bedstraw plant response rating (bedstraw; [8]): 8
Plant response rating, Giant foxtail (giant foxtail; [1]): 8
Giant foxtail plant response rating (giant foxtail; [2]): 8
Giant foxtail plant response rating (giant foxtail; [3]): 10
Plant response rating, Giant foxtail (giant foxtail; [4]): 10
Giant foxtail plant response rating (giant foxtail; [5]): 10
Giant foxtail plant response rating (giant foxtail; [7]): 9
Giant foxtail plant response rating (giant foxtail; [8]): 9
Plant response rating, Wheat (wheat; [1]): 0
Wheat plant response rating (wheat; [2]): 0
Wheat plant response rating (wheat; [3]): 5
Plant response rating, Wheat (wheat; [4]): 6
Wheat plant response rating (wheat; [5]): 7
Wheat plant response rating (wheat; [7]): 4
Wheat plant response rating (wheat; [8]): 6
Plant response rating, B. signalgrass (surinam grass; [1]): 5
B. signalgrass plant response rating (surinam grass; [2]): 5
B. signalgrass plant response rating (surinam grass; [3]): 8
Plant response rating, B. signalgrass (surinam grass; [4]): 8
B. signalgrass plant response rating (surinam grass; [5]): 8
Plant response rating, B. signalgrass (surinam grass; [6]): 9
B. signalgrass plant response rating (surinam grass; [7]): 6
B. signalgrass plant response rating (surinam grass; [8]): 7
Plant response rating, Nutsedge (purple nutsedge; [1]): 0
Nutsedge plant response rating (purple nutsedge; [2]): 0
Plant response rating, Nutsedge (purple nutsedge; [4]): 0
Nutsedge plant response rating (purple nutsedge; [5]): 0
Nutsedge plant response rating (purple nutsedge; [7]): 0
Nutsedge plant response rating (purple nutsedge; [8]): 3
Plant response rating, Crabgrass (crabgrass; [1]): 8
Crabgrass plant response rating (crabgrass; [2]): 9
Crabgrass plant response rating (crabgrass; [3]): 10
Plant response rating, Crabgrass (crabgrass; [4]): 10
Crabgrass plant response rating (crabgrass; [5]): 10
Crabgrass plant response rating (crabgrass; [7]): 9
Crabgrass plant response rating (crabgrass; [8]): 9
Plant response rating, Redroot pigweed (pigweed; [1]): 8
Redroot pigweed plant response rating (pigweed; [2]): 8
Redroot pigweed plant response rating (pigweed; [3]): 8
Plant response rating, Redroot pigweed (pigweed; [4]): 8
Redroot pigweed plant response rating (pigweed; [5]): 10
Redroot pigweed plant response rating (pigweed; [7]): 9
Redroot pigweed plant response rating (pigweed; [8]): 9
Plant response rating, Blackgrass (blackgrass; [1]): 5
Blackgrass plant response rating (blackgrass; [2]): 6
Blackgrass plant response rating (blackgrass; [3]): 9
Plant response rating, Blackgrass (blackgrass; [4]): 9
Blackgrass plant response rating (blackgrass; [5]): 9
Plant response rating, Blackgrass (blackgrass; [6]): 10
Blackgrass plant response rating (blackgrass; [7]): 6
Blackgrass plant response rating (blackgrass; [8]): 6
Plant response rating, Velvetleaf (velvetleaf; [1]): 5
Velvetleaf plant response rating (velvetleaf; [2]): 6
Velvetleaf plant response rating (velvetleaf; [3]): 5
Plant response rating, Velvetleaf (velvetleaf; [4]): 6
Velvetleaf plant response rating (velvetleaf; [5]): 7
Velvetleaf plant response rating (velvetleaf; [7]): 6
Velvetleaf plant response rating (velvetleaf; [8]): 6
Plant response rating, Morningglory (morningglory; [1]): 4
Morningglory plant response rating (morningglory; [2]): 4
Morningglory plant response rating (morningglory; [3]): 0
Plant response rating, Morningglory (morningglory; [4]): 0
Morningglory plant response rating (morningglory; [5]): 0
Morningglory plant response rating (morningglory; [7]): 4
Morningglory plant response rating (morningglory; [8]): 8
Plant response rating, Soybean (soybean; [1]): 3
Soybean plant response rating (soybean; [2]): 4
Soybean plant response rating (soybean; [3]): 0
Plant response rating, Soybean (soybean; [4]): 0
Soybean plant response rating (soybean; [5]): 3
Soybean plant response rating (soybean; [7]): 4
Soybean plant response rating (soybean; [8]): 5
Plant response rating, Wild oats (wild oat; [1]): 1
Wild oats plant response rating (wild oat; [2]): 3
Wild oats plant response rating (wild oat; [3]): 8
Plant response rating, Wild oats (wild oat; [4]): 9
Wild oats plant response rating (wild oat; [5]): 9
Wild oats plant response rating (wild oat; [7]): 5
Wild oats plant response rating (wild oat; [8]): 6
Plant response rating, Sugarbeets (sugar beet; [1]): 0
Sugarbeets plant response rating (sugar beet; [2]): 0
Sugarbeets plant response rating (sugar beet; [3]): 6
Plant response rating, Sugarbeets (sugar beet; [4]): 6
Sugarbeets plant response rating (sugar beet; [5]): 8
Sugarbeets plant response rating (sugar beet; [7]): 3
Sugarbeets plant response rating (sugar beet; [8]): 6
